In patent publication US10995091B2 (Proximagen, LLC, priority 2010, dated 2021) one finds Ki data, which are given here for 33 molecules.

Structures can show the parent of a compound that is named as a salt. Where only a bound is given, the exact number is not on record here.

The target in this experiment is T1, Human CXCR4 transfected HEK293 cells (Homo sapiens, UniProt P61073).
T1 construct: expressed in transfected cells; host or cells: HEK293
The experiment in a line: CXCR4 functional calcium assay (calcium flux FLIPR, antagonism of SDF1 response). As to conditions: CXCR4 functional activity, antagonism of SDF1 (EC50 concentration), read-out: CXCR4 fKi. Type of experiment: cell-based. Put shortly: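 HEK293 cells stably transfected with human CXCR4 were loaded with 2 μM Fluo-4 AM in HBSS containing 2.5 mM probenecid, 0.1% BSA and 10 mM HEPES at pH 7.4 and 37° C. Compound was added first, then SDF1 at its EC50 concentration, and intracellular calcium fluorescence was followed on a FLIPR. Antagonist dose-response curves were fitted.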

T1 sequence (P61073 whole entry): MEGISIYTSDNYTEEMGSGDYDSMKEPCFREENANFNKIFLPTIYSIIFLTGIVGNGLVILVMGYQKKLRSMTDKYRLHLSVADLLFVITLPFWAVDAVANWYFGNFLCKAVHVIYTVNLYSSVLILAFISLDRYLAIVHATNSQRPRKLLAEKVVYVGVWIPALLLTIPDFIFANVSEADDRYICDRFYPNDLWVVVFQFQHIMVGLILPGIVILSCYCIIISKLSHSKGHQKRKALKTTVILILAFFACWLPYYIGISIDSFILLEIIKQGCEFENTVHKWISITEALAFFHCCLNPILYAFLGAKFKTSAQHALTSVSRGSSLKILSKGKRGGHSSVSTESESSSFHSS

Take `C[C@H](c1ccc(F)cc1)N1CCC(N2CCCN(c3cccc(C(=O)NCC4CC4)n3)CC2)CC1` [Example 75, N-(Cyclopropylmethyl)-6-(4-{1-[(1R)-1-(4-fluorophenyl)ethyl]piperidin-4-yl}-1,4-diazepan-1-yl)pyridine-2-carboxamide]: the Ki lay in the range of 0.1 to 0.5 µM.

As for `[2H]C1([2H])CCN(C2CCN(Cc3ccc(F)cc3Cl)CC2)CCN1c1cccc(C(=O)Nc2ccncc2)n1` [Example 205, 6-(4-{1-[(2-Chloro-4-fluorophenyl)methyl]piperidin-4-yl}-7,7-dihydrogenio-1,4-diazepan-1-yl)-N-(pyridin-4-yl)pyridine-2-carboxamide], the Ki is less than 0.02 µM.

`CC(C)N1CCC(N2CCCN(c3cccc(C(=O)NCc4cccnc4)n3)CC2)CC1` [Example 34, 6-{4-[1-(Propan-2-yl)piperidin-4-yl]-1,4-diazepan-1-yl}-N-(pyridin-3-ylmethyl)pyridine-2-carboxamide]: the Ki is less than 0.02 µM.

Take `CC(C)N1CCC(N2CCCN(c3cccc(C(=O)NCc4ccncc4)n3)CC2)CC1` [Example 36, 6-{4-[1-(Propan-2-yl)piperidin-4-yl]-1,4-diazepan-1-yl}-N-(pyridin-4-ylmethyl)pyridine-2-carboxamide]: the Ki is less than 0.02 µM.

As to `CC(C)N1CCC(N2CCC(C)N(c3cccc(C(=O)NCC4CC4)n3)CC2)CC1` (stereo not drawn) [Example 174, N-(Cyclopropylmethyl)-6-{7-methyl-4-[1-(propan-2-yl)piperidin-4-yl]-1,4-diazepan-1-yl}pyridine-2-carboxamide], the Ki lay in the range of 0.1 to 0.5 µM.

With `Cc1nc(-c2cccc(N3CCN(C4CCCN(C5CCCC5)CC4)CC3)n2)[nH]c1C1CC1` (stereo not drawn) [Example 245, 1-Cyclopentyl-4-{4-[6-(5-cyclopropyl-4-methyl-1H-imidazol-2-yl)pyridin-2-yl]piperazin-1-yl}azepane], the Ki fell in the range of 0.02 to 0.1 µM.

Regarding `[2H]C1([2H])CCN(c2cccc(C(=O)Nc3ccncc3)n2)CCN1C1CCN([C@H](C)CC)CC1` [Example 188, 6-(4-{1-[(2R)-Butan-2-yl]piperidin-4-yl}-5,5-dihydrogenio-1,4-diazepan-1-yl)-N-(pyridin-4-yl)pyridine-2-carboxamide], the Ki was less than 0.02 µM.

For the molecule `O=C(NCC1CC1)c1cccc(N2CCCN(C3CCN(Cc4ccc(F)cc4)CC3)CC2)n1` [Example 130, N-(Cyclopropylmethyl)-6-(4-{1-[(4-fluorophenyl)methyl]piperidin-4-yl}-1,4-diazepan-1-yl)pyridine-2-carboxamide], the Ki fell in the range of 0.1 to 0.5 µM.

For the molecule `CC[C@H](C)N1CCC(N2CCCN(c3cccc(C(=O)Nc4ccncc4)n3)CC2)CC1` [Example 79, 6-(4-{1-[(2S)-Butan-2-yl]piperidin-4-yl}-1,4-diazepan-1-yl)-N-(pyridine-4-yl)pyridine-2-carboxamide], the Ki is less than 0.02 µM.

On to `CC(C)N1CCC(N2CCCN(c3cccc(-c4c[nH]c5ccccc45)n3)CC2)CC1` [Example 102, 3-(6-{4-[1-(Propan-2-yl)piperidin-4-yl]-1,4-diazepan-1-yl}pyridine-2-yl)-1H-indole], for which the Ki was in the range of 0.5 to 1 µM.

As to `c1cc(NCCNC2CCCN(C3CCCC3)C2)nc(-c2ncc(C3CC3)[nH]2)c1` (stereo not drawn) [Example 230, 1-Cyclopentyl-N-(2-{[6-(5-cyclopropyl-1H-imidazol-2-yl)pyridin-2-yl]amino}ethyl)piperidin-3-amine], the Ki was in the range of 0.1 to 0.5 µM.

With `CC(C)N1CCC(N2CCCN(c3cccc(C(=O)NCC4CCOCC4)n3)CC2)CC1` [Example 1, N-(Oxan-4-ylmethyl)-6-{4-[1-(propan-2-yl)piperidin-4-yl]-1,4-diazepan-1-yl}pyridine-2-carboxamide], the Ki is 0.1 to 0.5 µM.

Turning to `Cc1nc(-c2cccc(N3CC[C@@H](NC[C@@H]4CCN(C5CCCC5)C4)C3)n2)[nH]c1C1CC1` [Example 224, (3R)—N-{[(3S)-1-Cyclopentylpyrrolidin-3-yl]methyl}-1-[6-(4-cyclopropyl-5-methyl-1H-imidazol-2-yl)pyridin-2-yl]pyrrolidin-3-amine], the Ki was less than 0.02 µM.

In the case of `CC(C)N1CCC(N2CCN(c3cccc(C(=O)NCC4CC4)n3)CCC2C)CC1` (stereo not drawn) [Example 184, N-(Cyclopropylmethyl)-6-{5-methyl-4-[1-(propan-2-yl)piperidin-4-yl]-1,4-diazepan-1-yl}pyridine-2-carboxamide], the Ki was 0.02 to 0.1 µM.

Regarding `COCc1nc(-c2cccc(N3CCCN(C4CCN(C(C)C)CC4)CC3)n2)no1` [Example 163, 1-{6-[5-(Methoxymethyl)-1,2,4-oxadiazol-3-yl]pyridine-2-yl}-4-[1-(propan-2-yl)piperidin-4-yl]-1,4-diazepane], the Ki lay within 0.1 to 0.5 µM.

As to `COc1ccc2cc(-c3cccc(N4CCCN(C5CCN(C(C)C)CC5)CC4)n3)[nH]c2c1` [Example 104, 6-Methoxy-2-(6-{4-[1-(propan-2-yl)piperidin-4-yl]-1,4-diazepan-1-yl}pyridine-2-yl)-1H-indole], the Ki lay in the range of 0.5 to 1 µM.

As for `CCCc1nc(-c2cccc(N3CCCN(C4CCN(C(C)C)CC4)CC3)n2)no1` [Example 156, 1-[1-(Propan-2-yl)piperidin-4-yl]-4-[6-(5-propyl-1,2,4-oxadiazol-3-yl)pyridine-2-yl]-1,4-diazepane], the Ki was in the range of 0.02 to 0.1 µM.

For `CCCc1nc(-c2cccc(N3CCCN(C4CCN([C@H](C)CC)CC4)CC3)n2)no1` [Example 154, 1-{1-[(2R)-Butan-2-yl]piperidin-4-yl}-4-[6-(5-propyl-1,2,4-oxadiazol-3-yl)pyridin-2-yl]-1,4-diazepane], the Ki lay within 0.1 to 0.5 µM.

With `O=C(NCC1CC1)c1cccc(N2CCCN(CCCN3CCc4ccccc4C3)CC2)n1` [Example 252, N-(Cyclopropylmethyl)-6-{4-[3-(1,2,3,4-tetrahydroisoquinolin-2-yl)propyl]-1,4-diazepan-1-yl}pyridine-2-carboxamide], the Ki was in the range of 0.5 to 1 µM.

In the case of `CCc1cn(C)c(-c2cccc(N3CCCN(C4CCN(C(C)C)CC4)CC3)n2)n1` [Example 124, 1-[6-(4-Ethyl-1-methyl-1H-imidazol-2-yl)pyridine-2-yl]-4-[1-(propan-2-yl)piperidin-4-yl]-1,4-diazepane], the Ki was 0.02 to 0.1 µM.

On to `CC(C)N1CCC(N2CC3CCC2CN(c2cccc(C(=O)Nc4ccncc4)n2)C3)CC1` (stereo not drawn) [Example 197, 6-{6-[1-(Propan-2-yl)piperidin-4-yl]-3,6-diazabicyclo[3.2.2]nonan-3-yl}-N-(pyridin-4-yl)pyridine-2-carboxamide], for which the Ki lay in the range of 0.02 to 0.1 µM.

Consider `O=C(NCC1CC1)c1cccc(N2CCCN(C3CCN(C4CC4)CC3)CC2)n1` [Example 62, N-(Cyclopropylmethyl)-6-[4-(1-cyclopropylpiperidin-4-yl)-1,4-diazepan-1-yl]pyridine-2-carboxamide], for which the Ki was in the range of 0.5 to 1 µM.

Regarding `Cc1cn[nH]c1-c1cccc(N2CCCN(C3CCN(C(C)C)CC3)CC2)n1` [Example 173, 1-[6-(4-Methyl-1H-pyrazol-3-yl)pyridin-2-yl]-4-[1-(propan-2-yl)piperidin-4-yl]-1,4-diazepane Trihydrochloride], the Ki is 0.5 to 1 µM.

Take `[2H]C1([2H])CCN(c2cccc(C(=O)Nc3ccncc3)n2)CC(C)N1C1CCN(Cc2ccc(F)cc2Cl)CC1` (stereo not drawn) [Example 207, 6-(4-{1-[(2-Chloro-4-fluorophenyl)methyl]piperidin-4-yl}-5,5-dihydrogenio-3-methyl-1,4-diazepan-1-yl)-N-(pyridin-4-yl)pyridine-2-carboxamide]: the Ki was less than 0.02 µM.

For the molecule `CC(C)N1CCC(N2CCCN(c3cccc(-c4ncc(C5CC5)[nH]4)n3)CC2)CC1` [Example 111, 1-[6-(4-Cyclopropyl-1H-imidazol-2-yl)pyridine-2-yl]-4-[1-(propan-2-yl)piperidin-4-yl]-1,4-diazepane], the Ki is less than 0.02 µM.

For `CC(C)N1CCC(N2CCCN(c3cccc(C(=O)NC4CCOCC4)n3)CC2)CC1` [Example 2, N-(Oxan-4-yl)-6-{4-[1-(propan-2-yl)piperidin-4-yl]-1,4-diazepan-1-yl}pyridine-2-carboxamide], the Ki was 0.1 to 0.5 µM.

Regarding `O=C(Nc1ccncc1)c1cccc(N2CCC3CCCC(C2)N3C2CCN(Cc3ccccc3Cl)CC2)n1` (stereo not drawn) [Example 218, 6-(10-{1-[(2-Chlorophenyl)methyl]piperidin-4-yl}-3,10-diazabicyclo[4.3.1]decan-3-yl)-N-(pyridin-4-yl)pyridine-2-carboxamide], the Ki was 0.1 to 0.5 µM.

`CC(C)N1CCC(N2CCCN(c3cccc(C(=O)NCc4cccnc4)n3)CC2)CC1C` (stereo not drawn) [Example 215, 6-{4-[2-Methyl-1-(propan-2-yl)piperidin-4-yl]-1,4-diazepan-1-yl}-N-(pyridin-3-ylmethyl)pyridine-2-carboxamide]: the Ki fell in the range of 0.02 to 0.1 µM.

`Cc1cccc2nc(-c3cccc(N4CCCN(C5CCN(C(C)C)CC5)CC4)n3)[nH]c12` [Example 143, 7-Methyl-2-(6-{4-[1-(propan-2-yl)piperidin-4-yl]-1,4-diazepan-1-yl}pyridine-2-yl)-1H-1,3-benzodiazole]: the Ki was 0.1 to 0.5 µM.

Consider `Cc1nc(-c2cccc(N3CCCN(C4CCN(C(C)C)CC4F)CC3)n2)[nH]c1C1CC1` (stereo not drawn) [Example 213, 1-[6-(4-Cyclopropyl-5-methyl-1H-imidazol-2-yl)pyridin-2-yl]-4-[3-fluoro-1-(propan-2-yl)piperidin-4-yl]-1,4-diazepane], for which the Ki is 0.02 to 0.1 µM.

Regarding `CC(C)N1CCC(N2CCCN(c3cccc(-c4nnc(C5CC5)o4)n3)CC2)CC1` [Example 172, 1-[6-(5-Cyclopropyl-1,3,4-oxadiazol-2-yl)pyridin-2-yl]-4-[1-(propan-2-yl)piperidin-4-yl]-1,4-diazepane], the Ki lay in the range of 0.1 to 0.5 µM.

With `Clc1ccccc1CN1CCC(N2CCCN(c3nccs3)CC2)CC1` [Example 267, 1-{1-[(2-Chlorophenyl)methyl]piperidin-4-yl}-4-(1,3-thiazol-2-yl)-1,4-diazepane], the Ki was in the range of 0.1 to 0.5 µM.

Regarding `CCc1cnc(-c2cccc(N3CCCN(C4CCN(C(C)C)CC4)CC3)n2)[nH]1` [Example 108, 1-[6-(4-Ethyl-1H-imidazol-2-yl)pyridine-2-yl]-4-[1-(propan-2-yl)piperidin-4-yl]-1,4-diazepane], the Ki is less than 0.02 µM.
